The test system of assay [1] is autologous CD4+ T cells. Description: In vitro proliferation of autologous CD4+ T cells (tritiated thymidine). Format: cell-based, human. To be noted: DCs incubated with mannan (1 mg/ml) before FVIII; FIG. 4a. As to the method:
The DCs of Example 1 were incubated with mannan (1 mg/ml) for 30 min at 37° C. FVIII dialyzed against RPMI 1640 medium (Kogenate, Bayer) was added (40 μg/ml, 0.143 μM) for 2 hours. The cells were then washed and incubated with LPS (1 μg/0.5 million cells) in complete medium for 48 hours. The cells were then washed and cultured (RPMI 1640 medium, supplemented with 10% male human AB serum, in 96-well cell culture plates with a round base with 200 μl per well) with autologous CD4+ T cells obtained from the PBMC of the corresponding donor using the MACS cell isolation kit (Miltenyi Biotech, Bergisch Gladbach, Germany). The number of CD4+ T cells was kept constant in each well (100,000 cells/well), while the number of DCs varied (5,000, 10,000 and 15,000 DCs in triplicate), giving a T:DC cell ratio of 20:1, 10:1, 6.6:1.
After culture for 4 days, 0.5 μCi of tritiated thymidine was added to each well. The cells were harvested after 16 hours and the radioactivity incorporated was counted.

Assay [2] deals with T1, CTLD(4-7)-Fc (construct of the mannose receptor) (Mus musculus, UniProt Q61830).
T1 construct: gift of Dr Luisa Martinez-Pomares, University of Nottingham
T1 sequence (Q61830 with tags, fused parts or gaps limits assumed): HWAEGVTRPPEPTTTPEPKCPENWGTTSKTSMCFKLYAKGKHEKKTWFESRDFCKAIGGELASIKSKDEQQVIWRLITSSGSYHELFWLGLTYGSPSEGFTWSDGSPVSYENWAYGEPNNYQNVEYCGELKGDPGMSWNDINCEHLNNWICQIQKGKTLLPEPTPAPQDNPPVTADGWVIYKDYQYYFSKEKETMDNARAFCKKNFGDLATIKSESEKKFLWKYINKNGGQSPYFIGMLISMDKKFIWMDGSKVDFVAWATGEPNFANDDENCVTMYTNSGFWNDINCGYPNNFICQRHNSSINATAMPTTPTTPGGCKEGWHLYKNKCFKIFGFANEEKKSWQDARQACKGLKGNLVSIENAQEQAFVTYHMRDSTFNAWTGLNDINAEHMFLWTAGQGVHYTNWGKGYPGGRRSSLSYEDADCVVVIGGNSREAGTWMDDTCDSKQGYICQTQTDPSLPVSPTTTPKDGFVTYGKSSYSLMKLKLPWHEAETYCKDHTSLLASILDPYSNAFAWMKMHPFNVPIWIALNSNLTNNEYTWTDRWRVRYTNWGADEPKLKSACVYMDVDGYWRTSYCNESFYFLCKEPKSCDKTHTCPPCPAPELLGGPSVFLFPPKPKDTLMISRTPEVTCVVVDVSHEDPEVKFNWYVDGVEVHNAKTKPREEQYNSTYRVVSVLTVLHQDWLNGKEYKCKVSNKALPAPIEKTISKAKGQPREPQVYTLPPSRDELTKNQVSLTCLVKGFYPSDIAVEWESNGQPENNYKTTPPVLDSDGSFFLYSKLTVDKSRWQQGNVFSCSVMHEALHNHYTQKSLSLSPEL
Briefly: ELISA binding of mannose receptor construct CTLD(4-7)-Fc to coated ligands. Particulars: ELISA plates coated with ligand; FIG. 3c. As to the method:
Constructs of the mannose receptor, CTLD(4-7)-FC and CR-FNII-CTLD(1-3)-CR-Fc, were kindly donated by Dr Luisa Martinez-Pomares, School of Molecular Medical Sciences, Queen's Medical Centre, University of Nottingham, UK. The binding of the constructs to whole recombinant human FVIII and to B domain-deleted recombinant human FVIII was tested either directly by measuring the binding to ELISA plates coated with ligands (mannan was used as a positive control) or indirectly by inhibition tests. The ELISA plates (Nunc; MAXISORP) were coated overnight with dilution series of the FVIII forms (starting at 50 μg/ml) in 154 mM NaCl. TTBS buffer (Tris-HCl 10 mM, pH 7.5, Ca^2+ 10 mM, NaCl 154 mM and 0.05% Tween-20) was used for all the washings. The non-reactive sites were blocked by TBS buffer (TTBS without Tween-20) containing 3% BSA. The plates were then incubated with 2 or 10 μg/ml of the constructs for 2 h at room temperature in TTBS buffer containing 3% BSA. The binding of the MR constructs was detected using a mouse antibody specific for the Fc part of human IgG conjugated to HRP (clone JDC-10, Southern Biotechnology Associates, Inc. AL, USA). […] The absorbance was measured at 492 nm. For the inhibition tests, the plates were coated with each form of FVIII (5.56 μg/ml). […] The absorbance was measured as described above. […]
On the technique in general: An ELISA detects its analyte on a solid surface through an enzyme-linked reagent.

Assay [3] has as its system DCs according to Example 1. Briefly: Internalization of demannosylated FVIII-BDD-FITC by DCs (FACS). Format: cell-based, human. As to the method:
Finally, the inhibition of the internalization of demannosylated FVIII-BDD labelled with FITC was measured. FVIII-BDD conjugated to FITC and treated with EndoF1 (0.143 μM) or untreated is incubated with DCs according to Example 1 (4×10^5 cells/well of 100 μl) in X-VIVO medium without serum at 37° C. or at 4° C. Beforehand, the cells were preincubated, where appropriate, with mannan (1 mg/ml) for 30 min at 37° C. After incubation for 2 hours, the cells are washed and the mean intensities (mfi) are measured by FACS. The internalization of FVIII-BDD is expressed with respect to the calculated mfi in the presence of untreated FVIII alone (cf. FIG. 8).

Consider mannan, for which the “proliferation of T cells” value in assay [1] is recorded as “levels comparable to those of negative controls”. In assay [2], the “binding to CTLD(4-7)-Fc” value was “specific binding”. Moreover, the “further reduction of internalization of EndoF1-treated FVIII” value in assay [3] (in the presence of mannan, results not shown) stood at 32%. Moreover, the “inhibition of the internalization of FVIII-BDD” value in assay [3] (with mannan (1 mg/ml), without deglycosylation, FIG. 8) is 45±7%.
